Data on four compounds can be found in ChEMBL document CHEMBL1143799, “Synthesis and primary cytotoxicity evaluation of new imidazo[2,1-b]thiazole derivatives” (2007).

Holding throughout (assay type): functional
In one test the test system is MCF7. As to the kind of experiment: Cytotoxicity against human MCF7 cells assessed as growth at 100 uM after 48 hrs by SRB protein assay relative to control. The settings on record: MCF7, 48 h, read-out: Activity.
The next test deals with NCI-H460. Description: Cytotoxicity against human […] cells assessed as growth at 100 uM after 48 hrs by SRB protein assay relative to control. The settings on record: NCI-H460, 48 h, read-out: Activity. A general note: In SRB staining, fixed cells bind dye roughly in proportion to their protein.
For the next test, the system named is SF-268. As to the kind of experiment: Cytotoxicity against human SF268 cells assessed as growth at 100 uM after 48 hrs by SRB protein assay relative to control. The settings on record: SF-268, 48 h, read-out: Activity.

For `COc1ccc(/C=N/NC(=O)Cc2csc3nc(-c4ccc(Br)cc4)cn23)cc1`, the growth at 100 µM in the test with MCF7 was 46%; with NCI-H460, 34%; in the test with SF-268, 56%.
In the same order, the values of `CN(C)c1ccc(/C=N/NC(=O)Cc2csc3nc(-c4ccc(Br)cc4)cn23)cc1` are 82%, 69% and 77%.
On to `O=C(Cc1csc2nc(-c3ccc(Br)cc3)cn12)N/N=C/c1ccc(F)cc1`, for which the figures for the growth at 100 µM with MCF7, with NCI-H460 and in the test on SF-268 were 71%, 35% and 84%, respectively.
The like results for `O=C(Cc1csc2nc(-c3ccc(Br)cc3)cn12)N/N=C/c1ccc(Br)cc1` were, in that order, 56%, 75% and 107%.
